# Results from paper PMC4569384, “[^11C]MADAM Used as a Model for Understanding the Radiometabolism of Diphenyl Sulfide Radioligands for Positron Emission Tomography (PET)” (PLoS ONE, 2015).
# Where two headings read alike, the source gives them in different places.
# Columns and labels:
# [1] = set-up: method as in PMID 24857865; conditions: cited from earlier work; for Fraction of total radioactivity in plasma: macaque plasma
# [2] = Quantification of MADAM and metabolites in HLM incubations by UHPLC/Q-ToF-MS; type: in vitro ADME, human; conditions: for Concentration in HLM incubation: MADAM 10 μM initial
# Protocol: (§1) MADAM and/or [^11C]MADAM (5–15 MBq) were incubated with HLM and RLM (0.5 mg/mL) at 37°C in 1 mL of 0.05 M potassium phosphate buffer (pH 7.4) containing 5 mM NADPH. Experiments were performed with MADAM concentrations of 1 and 10 μM. The incubation times were the following: […] (RLM experiments); 10, 45 and 90 min (HLM experiments). The incubation was stopped by adding an equal volume of ice-cold acetonitrile. The mixture was then vortexed and centrifuged and the supernatant was removed, evaporated. The residue was reconstituted in 150 μL mobile phase before being analyzed by radio-HPLC and UHPLC/Q-ToF-MS as described below. Control incubations in the absence of microsomes, MADAM or NADPH were also performed to assure that the observed peaks corresponded to MADAM metabolites.
# (§2) The analyses were performed on a Waters (Milford, MA, USA) Acquity Ultra Performance LC^TM binary solvent manager coupled to a photodiode array detector and Waters (Micromass UK Limited, Manchester, UK) Q-Tof Premier. All the samples (10 μL) were injected onto a Waters Ethylene Bridged Hybrid (BEH) C18 column (2.1 x 50 mm, 1.7 μm) and eluted by a 5 min linear gradient starting from 100% water containing 0.1% formic acid and ending with 30% acetonitrile containing 0.1% formic acid at a flow rate of 0.5 mL/min. Positive electrospray ionization (+ESI) in V-mode with an extended dynamic range was used under the following conditions: capillary 3.5 kV, sampling cone 25 V, extraction cone 4.5 V, source temperature 100°C and desolvation temperature 380°C. Two scan functions, MS and MS^E, in the mass range of 100–1000 Da, were performed simultaneously. The collision energy was set to 5 eV during the MS acquisition and it was ramped from 10 to 35 eV during the MS^E acquisition. MetaboLynx^TM (Waters, Milford, MA, USA) was used to aid metabolite identification.
# In the present study, we further aimed to estimate the concentration of the ligand (MADAM) as well as that of the identified metabolites, among them NHMADAM, SOMADAM and NHSOMADAM, for which reference compounds were available. UHPLC/Q-ToF-MS instrumentation was employed to quantify these compounds in RLM and HLM incubations using AFM as the internal standard. In HLM incubations, the concentration of MADAM decreased from 10 μM to 7.76 ± 0.5 μM at 30 min and approximately half of MADAM (5.1 ± 0.5 μM) was still present after an incubation time of 120 min. […] Negligible amounts of the other two metabolites, SOMADAM and NHSOMADAM, were detected at these times. The concentration of SOMADAM ranged from 0.12 ± 0.02 μM to 0.15 ± 0.01 μM over time. A very slight increase in the concentration of NHSOMADAM was observed, from 0.12 ± 0.01 μM to 0.32 ± 0.03 μM at 30 min and 120 min incubation times, respectively.
# [3] = Quantification of MADAM and metabolites in RLM incubations by UHPLC/Q-ToF-MS; type: in vitro ADME, rat; conditions: for Concentration in RLM incubation (in words) / Concentration in RLM incubation: MADAM 10 μM initial; for Concentration in RLM incubation (in words): various incubation times
# Protocol: as §1, §2
# The parent compound MADAM was present at a concentration of 1.83 ± 0.20 μM at 10 min and from 30 min the concentration was very low (0.17 to 0.09 μM), indicating a fast metabolism in RLM. […] However, the concentration of the latter declined to 2.08 ± 0.3 μM to at 10 min and to 0.72 ± 0.31 at 60 min. The quantification in HLM experiments was not undertaken after 120 min.
# [4] = set-up: method as in PMID 17096093, PMID 18800204; conditions: cited from earlier work
# [5] = set-up: method as in PMID 16157534; conditions: 50 min after injection; cited from earlier work
# [6] = Radio-HPLC of rat urine after intravenous perfusion of [^11C]MADAM/MADAM; type: in vivo; conditions: for Percentage of intact [^11C]MADAM in urine: no carrier added
# Protocol: (§3) Reversed phase HPLC was used to determine the percentages of radioactivity in microsomal incubation samples that corresponded to unchanged radioligand and its radiometabolites. The HPLC system consists of a Merck Hitachi D-7000 pump, an interface module, a Merck Hitachi L-7400 UV absorbance detector (254 nm) in series with a Packard Radiomatic 150TR radiodetector equipped with a 600 μL flow cell, and a Rheodyne 7125 manual injector. A Waters μ-Bondapak C18 column (7.8 x 300 mm, 10 μm) with acetonitrile (A) and ammonium formate 0.1M (B) as the mobile phase was used with a flow rate of 6.0 mL/min, according to the following gradient: 0–4.5 min, (A/B) 10/90-15/85; 4.5–5.0 min, (A/B) 15/85-20/80; 5.0–5.5 min (A/B) 20/80-45/55; 5.5–9.0 min (A/B) 45/55; 9.0–10 min (A/B) 45/55-70/30; 10.0–20.0 min (A/B) 70/30. The detected peaks were integrated and their areas were expressed as a percentage of the sum of areas of all radioactive compounds present (decay-corrected).
# All animal handling and experiments were carried out in accordance with the guidelines of Karolinska Institutet and were approved by the local laboratory animal ethics committee (N 363/05 and N 373/07). The rats were housed under standard laboratory conditions with free access to laboratory food and water ad libitum. Male Sprague-Dawley rats were anesthetized with isoflurane, via an E-Z anesthesia vaporizer (5% initially and then 1.5% to maintain anesthesia, blended with 7:3 air: O2 and delivered through a Microflex non-rebreathing mask from Euthanex Corporation, Palmer, PA. The rats were placed on a heating pad (37°C) while [^11C]MADAM (52–76 MBq) and/or MADAM (25 μg to 1 mg) as a perfusion were administered intravenously; the rats were sacrificed at various time points after the administration (15, 30 and 60 min). Urine samples were collected at each time point and acetonitrile (400 μL) was added. After centrifugation at 3000g for 4 min, the supernatant was injected into the radio-HPLC (section 2.3). The radioactivity of the precipitate was measured to quantify the efficiency of the acetonitrile extraction.
# [7] = set-up: method as in PMID 24857865; conditions: rats euthanized 15 and 30 min post injection; cited from earlier work
# [8] = Incubation of [^11C]MADAM with human liver microsomes, radio-HPLC; type: in vitro ADME; conditions: for Percentage of unchanged [^11C]MADAM: HLM 0.5 mg/mL, NADPH, no-carrier-added; for Intact [^11C]MADAM (%): HLM, t = 45 min
# Protocol: as §1, §3
# [9] = Incubation of [^11C]MADAM with rat liver microsomes, radio-HPLC; type: in vitro ADME; conditions: for Percentage of unchanged [^11C]MADAM: RLM 0.5 mg/mL, NADPH, no-carrier-added
# Protocol: as §1, §3
# [10] = set-up: method as in earlier work; conditions: human, 60 minutes after injection, cited from earlier work
smiles,measurement,setting,value
Cc1ccc([S+]([O-])c2ccccc2CN(C)[11CH3])c(N)c1 (stereo not shown) [[^11C]SOMADAM],Fraction of total radioactivity in plasma,[1]; 4 min after injection of [^11C]MADAM,5%
same,Fraction of total radioactivity in plasma,[1]; 15 min after injection of [^11C]MADAM,1%
CNCc1ccccc1[S+]([O-])c1ccc(C)cc1N (stereo not shown) [NHSOMADAM],Concentration in HLM incubation,[2]; incubation 30 min,120 ± 10 nM
same,Concentration in HLM incubation,[2]; incubation 120 min,320 ± 30 nM
same,Concentration in RLM incubation (in words),[3],very low concentrations
Cc1ccc(S(=O)(=O)c2ccccc2CN(C)C)c(N)c1 [SO2MADAM],Detection as metabolite of MADAM in microsomal preparations,"[2]; HLM, MADAM 10 μM",not detected
same,Detection as metabolite of MADAM in microsomal preparations,"[3]; RLM, MADAM 10 μM",not detected
CNCc1ccccc1Sc1ccc(C)cc1N [NHMADAM],Concentration in HLM incubation,[2]; incubation 30 min,2080 ± 400 nM
same,Concentration in HLM incubation,[2]; incubation 120 min,2890 ± 400 nM
same,Concentration in RLM incubation,[3]; incubation 10 min,2080 ± 300 nM
same,Concentration in RLM incubation,[3]; incubation 60 min,720 ± 310 nM
"[11CH3]Oc1ccccc1O[C@@H](c1ccccc1)[C@@H]1CNCCO1 [(S,S)-[^11C]MeNER]",Effect of addition of carrier on radiometabolic profile,[4],not affect the radiometabolic profile
Cc1ccc([S+]([O-])c2ccccc2CN(C)C)c(N)c1 (stereo not shown) [SOMADAM],Concentration in RLM incubation (in words),[3],very low concentrations
Cc1ccc(C2CC3CCC(C2C(=O)O[11CH3])N3CC=CI)cc1 (stereo not shown) [[^11C]PE2I],Effect of addition of carrier on radiometabolic profile,[4],not affect the radiometabolic profile
Cc1ccc(Sc2ccccc2CN(C)[11CH3])c(N)c1 [[^11C]MADAM],Percentage of unchanged radioligand in human plasma,[5],approximately 40%
same,Radiometabolites by radio-HPLC or UHPLC/Q-ToF-MS,[6]; high dose of MADAM approximately 1 mg perfused,no radiometabolites were detected
same,Percentage of unchanged [^11C]MADAM in urine,"[6]; i.v. perfusion 15 min, carrier MADAM 25 μg",16%
same,Radiometabolites in urine,"[6]; i.v. perfusion 15 min, carrier MADAM 125 μg",no radiometabolites were observed
same,Percentage of intact [^11C]MADAM in urine,[6]; i.v. perfusion 15 min,9%
same,Percentage of intact [^11C]MADAM in urine,[6]; i.v. perfusion 30 min,undetectable
same,Percentage of intact [^11C]MADAM in urine,[6]; i.v. perfusion 60 min,undetectable
same,Radiometabolites in urine,"[6]; more than 25 μg carrier, perfusion time 30 and 60 min",no radiometabolites were detected
same,Radioactive species in rat brain by radio-HPLC,[7],only one radioactive peak corresponding to [^11C]MADAM
same,Percentage of unchanged [^11C]MADAM,[8]; incubation 10 min,51 ± 4%
same,Percentage of unchanged [^11C]MADAM,"[8]; incubation 10 min, listed as [ ^11 C]MADAM",51 ± 4%
same,Percentage of unchanged [^11C]MADAM,[8]; incubation 45 min,35 ± 1%
same,Percentage of unchanged [^11C]MADAM,"[8]; incubation 45 min, listed as [ ^11 C]MADAM",35 ± 1%
same,Percentage of unchanged [^11C]MADAM,[8]; incubation 90 min,16 ± 1%
same,Percentage of unchanged [^11C]MADAM,"[8]; incubation 90 min, listed as [ ^11 C]MADAM",16 ± 1%
same,Radiometabolites in control incubations,"[8]; HLM experiments, control without either NADPH or microsomes",No radiometabolites were detected
same,Intact [^11C]MADAM (%),[8]; carrier MADAM 1 μM,58 ± 2%
same,Intact [^11C]MADAM (%),[8]; carrier MADAM 10 μM,80 ± 5%
same,Percentage of unchanged [^11C]MADAM,[9]; incubation 1 min,3.3 ± 1%
same,Percentage of unchanged [^11C]MADAM,"[9]; incubation 1 min, listed as [ ^11 C]MADAM",3.3 ± 1% ^1
same,Percentage of unchanged [^11C]MADAM,[9]; incubation 4 min,no [^11C]MADAM was detected
same,Radiometabolites in control incubations,"[9]; RLM experiments, control without either NADPH or microsomes",No radiometabolites were detected
same,Intact [^11C]MADAM (%),"[9]; RLM, t = 1 min, carrier MADAM 10 μM",78 ± 4%
Cc1ccc(Sc2ccccc2CN(C)C)c(N)c1 [MADAM],Concentration in HLM incubation,[2]; incubation 30 min,7760 ± 500 nM
same,Concentration in HLM incubation,[2]; incubation 120 min,5100 ± 500 nM
same,Concentration in RLM incubation,[3]; incubation 10 min,1830 ± 200 nM
Cc1ccc(S(=O)(=O)c2ccccc2CN(C)[11CH3])c(N)c1 [[^11C]SO2MADAM],Detection in plasma as further oxidation product,[1]; macaque plasma after injection of [^11C]MADAM,No further oxidation to [^11C]SO2MADAM was detected
[11CH3]N1CCc2cc(Cl)c(O)cc2C2c3ccccc3CCC21 (stereo not shown) [[^11C]SCH 39166],Percentage unchanged in plasma,[10]; high specific radioactivity,approximately 30%
same,Percentage unchanged in plasma,[10]; low specific radioactivity,~15%
